We go through one sequence from patent US20110039762A1, “TARGETED ANTIMICROBIAL MOIETIES” (C3 JIAN, INC., priority 2009, published 2011).

In experiment [1] the test system is MRSA. Description: MIC (broth microdilution). In kind it is cell-based, Methicillin-resistant Staphylococcus aureus. The essentials:
(§1)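 2-fold dilution series of peptides in 96-well plates, inoculated at about 1×10^5 cfu/mL in MH broth, following NCCLS standards. Plates held 18–24 h at 37 °C; each run repeated 10 times.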

For experiment [2], the system named is MRSA. The experiment is described as follows: Kill or inhibit growth/proliferation; morphology, biofilm and growth disruption (Tables 5, 6). In kind it is cell-based, Methicillin-resistant Staphylococcus aureus. Further details: key: A: Peptide aggregates; B: Less hyphal formation; Clumps; Diffuse clumps and small polyps; F: Diffuse growth; H: Thin; I: Growth inhibition; Microcolony formation; Rippled; Small polyps; Thick; W: Halo formation on top, microlonies on bottom.

The test system of the next experiment is A. niger. The experiment is described as follows: MIC (broth microdilution). In kind it is cell-based, Aspergillus niger. A digest of the protocol:
(§2)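 Broth microdilution per NCCLS: ~1×10^5 cfu/mL organisms in Mueller-Hinton broth with 2-fold serial dilutions of peptide. Incubated 37 °C for 18–24 h; MIC read as lowest inhibitory concentration, 10 replicate experiments.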
In general terms: Broth dilution looks for growth in wells or tubes with falling amounts of substance.

Experiment [3] has as its system B. subtilis. Description: MIC (broth microdilution). The class given is cell-based, Bacillus subtilis. The essentials: as §1
The subject of a further experiment is S. pneumoniae. The experiment is described as follows: Kill or inhibit growth/proliferation; morphology, biofilm and growth disruption (Tables 5, 6). In kind it is cell-based, Streptococcus pneumoniae. Further details: key: A: Peptide aggregates; B: Less hyphal formation; Clumps; Diffuse clumps and small polyps; F: Diffuse growth; H: Thin; I: Growth inhibition; Microcolony formation; Rippled; Small polyps; Thick; W: Halo formation on top, microlonies on bottom.

The next experiment has as its system T. rubrum. Description: MIC (broth microdilution). The class given is cell-based, Trichophyton rubrum. The essentials:
as §2

The subject of experiment [4] is E. faecalis. The experiment is described as follows: Kill or inhibit growth/proliferation; morphology, biofilm and growth disruption (Tables 5, 6). The class given is cell-based, Enterococcus faecalis. The arrangement: key: A: Peptide aggregates; B: Less hyphal formation; Clumps; Diffuse clumps and small polyps; F: Diffuse growth; H: Thin; I: Growth inhibition; Microcolony formation; Rippled; Small polyps; Thick; W: Halo formation on top, microlonies on bottom.

In experiment [5] the test system is S. epidermidis. In kind it is cell-based, Staphylococcus epidermidis. The settings on record: S. epidermidis. The essentials:
as §1

The subject of experiment [6] is C. albicans. The experiment is described as follows: MIC (broth microdilution). In kind it is cell-based, Candida albicans. As for the experimental part: (§3) Typically, the in vitro antimicrobial activity of antimicrobial agents is tested using standard NCCLS bacterial inhibition assays, or MIC tests (see, National Committee on Clinical Laboratory Standards “Performance Standards for Antimicrobial Susceptibility Testing,” NCCLS Document M100-S5 Vol. 14, No. 16, December 1994; “Methods for dilution antimicrobial susceptibility test for bacteria that grow aerobically-Third Edition,” Approved Standard M7-A3, National Committee for Clinical Standards, Villanova, Pa.).
(§4) Briefly, ˜1×10^5 cfu/mL bacteria were diluted in TH (S. mutans), or Mueller-Hinton (MH) broth (all other organisms) and distributed to 96-well plates. Serially-diluted (2-fold) peptides were then added and the plates incubated at 37° C. for 18-24 h. […] All experiments were conducted 10 times.

Experiment [7] deals with C. albicans. The experiment is described as follows: Kill or inhibit growth/proliferation; morphology, biofilm and growth disruption (Tables 5, 6). The class given is cell-based, Candida albicans. The arrangement: key: A: Peptide aggregates; B: Less hyphal formation; Clumps; Diffuse clumps and small polyps; F: Diffuse growth; H: Thin; I: Growth inhibition; Microcolony formation; Rippled; Small polyps; Thick; W: Halo formation on top, microlonies on bottom.

A further experiment concerns microorganisms. Description: Peptides having multiple activities (targeting/binding, antimicrobial, growth or phenotype altering). From the text:
In certain embodiments, peptides described herein can have multiple activities. Thus for example, a peptide can have both binding/targeting activity and antimicrobial activity. Such peptides can be used, e.g., in a chimeric construct, for any or all of these properties. Thus, for example, a peptide designated “B” in Table 8 can be used as a targeting peptide. If it is also designated G or M it can also be used for antimicrobial activity.

The subject of experiment [8] is B. subtilis. The experiment is described as follows: Kill or inhibit growth/proliferation; morphology, biofilm and growth disruption (Tables 5, 6). The class given is cell-based, Bacillus subtilis. The arrangement: key: A: Peptide aggregates; B: Less hyphal formation; Clumps; Diffuse clumps and small polyps; F: Diffuse growth; H: Thin; I: Growth inhibition; Microcolony formation; Rippled; Small polyps; Thick; W: Halo formation on top, microlonies on bottom.

For another experiment, the system named is C. jeikeium. The description is as above. In kind it is cell-based, Corynebacterium jeikeium. The arrangement: key: A: Peptide aggregates; B: Less hyphal formation; Clumps; Diffuse clumps and small polyps; F: Diffuse growth; H: Thin; I: Growth inhibition; Microcolony formation; Rippled; Small polyps; Thick; W: Halo formation on top, microlonies on bottom.

Experiment [9] concerns S. epidermidis. Described as above. In kind it is cell-based, Staphylococcus epidermidis. Further details: key: A: Peptide aggregates; B: Less hyphal formation; Clumps; Diffuse clumps and small polyps; F: Diffuse growth; H: Thin; I: Growth inhibition; Microcolony formation; Rippled; Small polyps; Thick; W: Halo formation on top, microlonies on bottom.
For experiment [10], the system named is E. faecalis. Description: MIC (broth microdilution). In kind it is cell-based, Enterococcus faecalis. On the procedure: as §3, §4

For the sequence MRFGSLALVAYDSAIKHSWPRPSSVRRLRM [PF-672], the MIC entry is on record as “MRSA , 1.56 μM” in the experiment on MRSA [1]; “A. niger, 3 μM” against A. niger; “B. subtilis, 0.78 μM” in the experiment with B. subtilis [3]; “T. rubrum, 0.78 μM” with T. rubrum; “S. epidermidis, 0.39 μM” with S. epidermidis [5]; “C. albicans, 1.56 μM” against C. albicans [6]. Moreover, the MIC result in the experiment on E. faecalis [10] is “E. faecalis, 3.13 μM”. For the same sequence, the “Organism, effect (morphology, biofilm and growth disruption)” value with MRSA [2] was “MRSA (I)”; in the experiment on S. pneumoniae, “S. pneumoniae (I)”; in the experiment with E. faecalis [4], “E. faecalis (I)”; in the experiment with C. albicans [7], “C. albicans (I)”; in the experiment with B. subtilis [8], “B. subtilis (I)”; in the experiment with C. jeikeium, “C. jeikeium (R)”. In addition, the “Organism, effect (morphology, biofilm and growth disruption)” value in the experiment with S. epidermidis [9] is “S. epidermidis (I)”. Further, the Activities result with microorganisms is recorded as “G B M”.
